Experimental data taken from US20140228287A1, “1-[(3-CYANO-PYRIDIN-2-YL)METHYL]-3-METHYL-7-(2-BUTYN-1-YL)-8-[3-(R)-AMINO-PIPERIDIN-1-YL]-AXANTHINE FOR THE TREATMENT OF A METABOLIC DISORDER OF A PREDOMINANTLY CARNIVOROUS NON-HUMAN ANIMAL” (BOEHRINGER INGELHEIM VETMEDICA GMBH, priority 2010, published 2014).
Structures can show the parent of a compound that is named as a salt. Where two headings read alike, the source gives them in different places.

Legend:
trypsin = assay: In vitro selectivity, human proteases: trypsin; assay type: biochemical; settings: up to 100 μM
Description: In order to determine the in vitro selectivity of 1-[(3-cyano-pyridin-2-yl)methyl]-3-methyl-7-(2-butyn-1-yl)-8-[3-(R)-amino-piperidin-1-yl]-xanthine, the ability of this compound to inhibit a number of human proteases was investigated as described in Thomas et al. (2008), J. Pharmacol. Exp. Ther., vol. 325, p. 175-182, chapter In vitro DPP-4 Inhibition Assay, p. 176.

DPP IV = biological target: T1, DPP IV (Felis catus, UniProt Q9N2I7); assay: Exploratory single dose PK/PD (1.0/5.0/10.0 mg/kg) in cats: DPP IV activity; assay type: in vivo, cat; settings: for response vs control in vivo at 1 mg/kg: 1 mg/kg single oral; for response vs control in vivo at 1 mg/kg / response vs control in vivo at 5 mg/kg / response vs control in vivo at 10 mg/kg: read-out: DPP IV activity in cat plasma; for response vs control in vivo at 5 mg/kg: 5 mg/kg single oral; for response vs control in vivo at 10 mg/kg: 10 mg/kg single oral
T1 construct: Blood samples for the determination of this compound and DPP IV activity were collected; from tissue; host or cells: plasma of domestic short hair / purpose-bred cats dosed orally
Description: The investigation of the PK/PD values was conducted in the same way as in Example 7, with the variations described below.
The aim of this study was to investigate the PK/PD behaviour of 1-[(3-cyano-pyridin-2-yl)methyl]-3-methyl-7-(2-butyn-1-yl)-8-[3-(R)-amino-piperidin-1-yl]-xanthine in the cat following a single oral administration of 0, 1, 5 and 10 mg/kg body weight (dosages were based on the free base: 1 mg 1-[(3-cyano-pyridin-2-yl)methyl]-3-methyl-7-(2-butyn-1-yl)-8-[3-(R)-amino-piperidin-1-yl]-xanthine monohydrochloride corresponds to 0.923 mg 1-[(3-cyano-pyridin-2-yl)methyl]-3-methyl-7-(2-butyn-1-yl)-8-[3-(R)-amino-piperidin-1-yl]-xanthine free base).
Twelve clinically healthy male adult domestic short hair cats with a body weight range of 3.5-4.7 kg were used in this study. All animals were treated orally once via a stomach tube. Blood samples for pharmacokinetic and pharmacodynamic (DPP IV activity) investigations were drawn at 0 h (i.e. prior to treatment), 30 min as well as 1, 2, 4, 8, 8.5, 9, 12, 24, 36, 48, 72, 84 and 96 h after treatment. Blood samples for pharmacodynamic (glucagon-like peptide 1 concentrations) investigations were drawn at −16 (i.e. prior to feeding), −15.5, −15 h as well as at 8 h (i.e. prior to feeding), 8.5 and 9 h after treatment.

blood glucose = assay: Glucose monitoring in obese/non-obese cats, 7 days once daily dosing; assay type: in vivo, cat; settings: 9 mg once daily 7 days; for Glucose, Max / Glucose, Mean / Glucose, Median / Glucose, Min: all 14 obese and non-obese cats, 168 hour period
Description: The aim of this exploratory, randomized, placebo controlled crossover study was to investigate the effect of 1-[(3-cyano-pyridin-2-yl)methyl]-3-methyl-7-(2-butyn-1-yl)-8-[3-(R)-amino-piperidin-1-yl]-xanthine monohydrochloride on DPP IV activity and on glucose concentrations in obese and non-obese cats after repeated oral administration over seven days.
Fourteen clinically healthy male and female (8 obese and 6 non-obese) purpose-bred cats were used in this study. The animals were randomly allocated to two groups of cats, obese and non-obese, and treated in a cross-over design with 9 mg 1-[(3-cyano-pyridin-2-yl)methyl]-3-methyl-7-(2-butyn-1-yl)-8-[3-(R)-amino-piperidin-1-yl]-xanthine monohydrochloride or placebo, once daily for 7 days, with a following wash-out period of 21 days.
Cats were fed once daily 40 min after administration of the compound or the placebo, respectively.
To allow a Continuous glucose monitoring (CGM) a Continuous glucose monitoring system (CGMS) was applied. To this end, on day 1 a Medtronic continuous glucose monitoring sensor (Guardian system; Medtronic Minimed, Northridge, Calif., USA) was placed interstitially. The skin was shaved, and then wiped several times with 70% alcohol. The sensor was inserted into the skin and secured to the skin with a cover provided by Medtronics, and Elasticon. The CGMS was calibrated 2 times daily using a glucometer. When a sensor became non-functional, a new sensor was placed. The sensors were placed between the shoulder blades. Data were recalled via a wireless system.
Also blood samples for were taken before and 6, 12, 24, 64, and 168 hours (3 ml each) after oral administration of the test compound or the placebo. Blood samples for the calibration of the CGMS were taken at least twice daily from day 1 to day 7 approximately twelve hours apart (0.2 ml of blood each time). Glucose measurements were performed using a glucometer (Presto WaveSense) and also a colorimetric glucose oxidase method (Genzyme Diagnostics PEI Incorporated; Charlottetown, Canada), reference method, at appropriate time points (0.2 ml each time; see results section). Interstitial glucose concentrations were followed with the continuous glucose monitoring system. After 7 days, the CGMS was removed.
The measured mean, median, min, and max glucose values for all 14 cats during a 168 hour testing period using the three glucose measurement methods are shown in Table 9.

[1] = Glucose oxidase (reference method)

T1 sequence (Q9N2I7 38-765 limits assumed): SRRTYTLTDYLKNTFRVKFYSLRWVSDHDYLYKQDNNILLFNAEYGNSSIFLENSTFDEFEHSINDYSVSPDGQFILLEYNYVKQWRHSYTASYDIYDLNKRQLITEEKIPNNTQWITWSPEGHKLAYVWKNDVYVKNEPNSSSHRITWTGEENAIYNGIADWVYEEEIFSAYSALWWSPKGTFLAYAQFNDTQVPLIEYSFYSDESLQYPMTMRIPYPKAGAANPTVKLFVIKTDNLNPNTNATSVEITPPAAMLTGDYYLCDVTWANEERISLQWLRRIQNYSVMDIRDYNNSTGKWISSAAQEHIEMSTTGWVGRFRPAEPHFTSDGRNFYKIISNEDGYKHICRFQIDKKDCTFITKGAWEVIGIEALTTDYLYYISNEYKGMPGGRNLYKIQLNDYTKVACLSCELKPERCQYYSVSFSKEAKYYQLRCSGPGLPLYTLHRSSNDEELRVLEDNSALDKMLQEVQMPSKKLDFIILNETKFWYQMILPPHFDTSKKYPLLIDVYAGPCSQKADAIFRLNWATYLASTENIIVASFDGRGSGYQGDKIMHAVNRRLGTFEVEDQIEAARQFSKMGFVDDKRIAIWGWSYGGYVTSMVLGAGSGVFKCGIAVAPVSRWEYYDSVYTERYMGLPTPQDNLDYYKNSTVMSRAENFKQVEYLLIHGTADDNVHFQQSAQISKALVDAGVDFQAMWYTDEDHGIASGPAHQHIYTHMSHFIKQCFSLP

SMILES: CC#CCn1c(N2CCC[C@@H](N)C2)nc2c1c(=O)n(Cc1ncccc1C#N)c(=O)n2C [1-[(3-cyano-pyridin-2-yl)methyl]-3-methyl-7-(2-butyn-1-yl)-8-[3-(R)-amino-piperidin-1-yl]-xanthine monohydrochloride]
- inhibitory effect on trypsin (trypsin): did not exert any inhibitory effect
- time up to which DPP IV values remained ≦20% (DPP IV; 1.0 mg/kg single oral): 12 h
- response vs control in vivo at 1 mg/kg (DPP IV; 0.5 h): 8%
- response vs control in vivo at 1 mg/kg (DPP IV; 1 h): 7%
- response vs control in vivo at 1 mg/kg (DPP IV; 2 h): 7%
- response vs control in vivo at 1 mg/kg (DPP IV; 4 h): 7.3%
- response vs control in vivo at 1 mg/kg (DPP IV; 8 h): 9.3%
- response vs control in vivo at 1 mg/kg (DPP IV; 8.5 h): 9.7%
- response vs control in vivo at 1 mg/kg (DPP IV; 9 h): 9.7%
- response vs control in vivo at 1 mg/kg (DPP IV; 12 h): 12.3%
- response vs control in vivo at 1 mg/kg (DPP IV; 24 h): 22.3%
- response vs control in vivo at 1 mg/kg (DPP IV; 36 h): 43%
- response vs control in vivo at 1 mg/kg (DPP IV; 48 h): 59%
- response vs control in vivo at 1 mg/kg (DPP IV; 72 h): 74.7%
- response vs control in vivo at 1 mg/kg (DPP IV; 84 h): 84.3%
- response vs control in vivo at 1 mg/kg (DPP IV; 96 h): 81.7%
- time up to which DPP IV values remained ≦20% (DPP IV; 5.0 mg/kg single oral): 24 h
- response vs control in vivo at 5 mg/kg (DPP IV; 0.5 h): 7.7%
- response vs control in vivo at 5 mg/kg (DPP IV; 1 h): 7%
- response vs control in vivo at 5 mg/kg (DPP IV; 2 h): 7%
- response vs control in vivo at 5 mg/kg (DPP IV; 4 h): 7.7%
- response vs control in vivo at 5 mg/kg (DPP IV; 8 h): 8.3%
- response vs control in vivo at 5 mg/kg (DPP IV; 8.5 h): 8.7%
- response vs control in vivo at 5 mg/kg (DPP IV; 9 h): 9%
- response vs control in vivo at 5 mg/kg (DPP IV; 12 h): 9.3%
- response vs control in vivo at 5 mg/kg (DPP IV; 24 h): 14.7%
- response vs control in vivo at 5 mg/kg (DPP IV; 36 h): 25.7%
- response vs control in vivo at 5 mg/kg (DPP IV; 48 h): 42.7%
- response vs control in vivo at 5 mg/kg (DPP IV; 72 h): 72.3%
- response vs control in vivo at 5 mg/kg (DPP IV; 84 h): 90%
- response vs control in vivo at 5 mg/kg (DPP IV; 96 h): 87.7%
- time up to which DPP IV values remained ≦20% (DPP IV; 10.0 mg/kg single oral): 48 h
- response vs control in vivo at 10 mg/kg (DPP IV; 0.5 h): 8%
- response vs control in vivo at 10 mg/kg (DPP IV; 1 h): 7.3%
- response vs control in vivo at 10 mg/kg (DPP IV; 2 h): 7.3%
- response vs control in vivo at 10 mg/kg (DPP IV; 4 h): 9%
- response vs control in vivo at 10 mg/kg (DPP IV; 8 h): 9%
- response vs control in vivo at 10 mg/kg (DPP IV; 8.5 h): 9.7%
- response vs control in vivo at 10 mg/kg (DPP IV; 9 h): 9.3%
- response vs control in vivo at 10 mg/kg (DPP IV; 12 h): 9.7%
- response vs control in vivo at 10 mg/kg (DPP IV; 24 h): 12.3%
- response vs control in vivo at 10 mg/kg (DPP IV; 36 h): 16.3%
- response vs control in vivo at 10 mg/kg (DPP IV; 48 h): 20%
- response vs control in vivo at 10 mg/kg (DPP IV; 72 h): 37%
- response vs control in vivo at 10 mg/kg (DPP IV; 84 h): 58.3%
- response vs control in vivo at 10 mg/kg (DPP IV; 96 h): 67.3%
- minimum mean DPP IV values (DPP IV; all three groups (1.0, 5.0, 10.0 mg/kg single oral)): 7%
- plasma concentration at which maximum DPP-IV inhibition was reached (DPP IV; cat, PK-PD correlation): 15 to 30 nmol/L
- Glucose, Max (blood glucose; CGM): 126 mg/dL
- Glucose, Mean (blood glucose; CGM): 94 mg/dL
- Glucose, Median (blood glucose; CGM): 93 mg/dL
- Glucose, Min (blood glucose; CGM): 66 mg/dL
- Glucose, Max (blood glucose; Glucometer): 131 mg/dL
- Glucose, Mean (blood glucose; Glucometer): 103 mg/dL
- Glucose, Median (blood glucose; Glucometer): 101 mg/dL
- Glucose, Min (blood glucose; Glucometer): 79 mg/dL
- Glucose, Max (blood glucose; [1]): 142 mg/dL
- Glucose, Mean (blood glucose; [1]): 93 mg/dL
- Glucose, Median (blood glucose; [1]): 89 mg/dL
- Glucose, Min (blood glucose; [1]): 71 mg/dL
- daily blood glucose concentrations, treated vs placebo treated (blood glucose; obese or non-obese cats): no difference in daily blood glucose concentrations
